# Where two headings read alike, the source gives them in different places.
# Assays:
# [1] = intravenous infusion, subjects having Parkinson's disease; cited from earlier work
# [2] = Plasma apomorphine concentration in Parkinson's patients, minimum effective concentration; assay type: in vivo, human
# Method: A range of doses was used. Over half of the patients needed only the lower two doses (Films J and K), and 80% used Film I, J, or K (FIG. 8; “apomorphine dose” in this Figure indicates the weight of apomorphine hydrochloride in the administered pharmaceutical unit dosage form). […] Eight patients had pharmacokinetic analyses; six of these eight patients have achieved “on” state. Mean plasma apomorphine concentration upon turning on was 2.64 ng/mL for the six patients. […] Responders had large, clinically meaningful UPDRS Part III changes (motor improvement) at all time-points while the non-responders had little motor improvement but not enough to convert from OFF to ON (FIG. 9B).
structure (smiles),measurement,setting,value
CN1CCc2cccc3c2[C@H]1Cc1ccc(O)c(O)c1-3 [apomorphine],minimum effective concentration,[1],4.7 ng/mL
same,minimum effective concentration,[2]; administered to oral mucosa,about 2.64 ng/mL
same,Mean plasma apomorphine concentration upon turning on,"[2]; six patients who achieved 'on' state, film to oral mucosa",2.64 ng/mL
same,average plasma apomorphine concentration,"[2]; two non-responders, all doses, each time point",< 2.64 ng/mL
